The target of series [1] is T1, GBA (Homo sapiens (Human), UniProt P04062, R534H). The series can be described thus: Continuous substrate release assay for inhibition constants. It is filed as biochemical. Conditions: for Ki: equilibrium constant for initial binding; for Ki / ki: reported with s.e.m.; for ki: rate constant; for ki/Ki: relative rate constant. The source says:
Previously discontinuous methods have been used to determine the inhibition constants of glycosidase inhibitors. […] Therefore the inhibition constants have been determined in a continuous substrate assay which was first described in 1982 (2) and has recently been reappraised in 2010 (3). In these experiments, inhibition of the enzyme and hydrolysis of the substrate proceed concurrently making the situation slightly more complex than the discontinuous (FIG. 39 Scheme 2). The time-dependent interaction of inhibitor (I) with free β-glucosidase (E) was considered to occur in separate stages (A). A rapid reversible interaction is followed by a slower, irreversible reaction that transforms the reversible enzyme-inhibitor complex (EI) into an irreversible enzyme-inhibitor complex (EI*) (FIG. 39 Scheme 2). Progress curves were obtained (FIG. 28a) and apparent rate constant k′ was plotted versus the concentration (FIG. 28b) to obtain estimates of the Ki (equilibrium constant) and ki (rate constant)
To 100 μL McIlvaine buffer (pH 5.2, 0.2% sodium taurocholate, 0.1% Triton X-100) containing 4-methylumbelliferyl β-D-glucoside (7.5 mM) in Greiner flat bottom black 96-well plate was added 5 μL inhibitor (25× stock in DMSO). The resulting mixture was preincubated at 37° C. for 15 min in a TECAN GENios microplate reader. GBA (2 ng) in McIlvaine buffer (20 μL pH 5.2, 0.2% sodium taurocholate, 0.1% Triton X-100) was preheated to 37° C. for 15 min before being added to the substrate mix. The resulting solution was mixed by horizontal shaking for 15 sec, after which release 4-methylumbelliferyl measured with a TECAN GENios platereader (λex 340 nm and λem 465 nm) for the indicated time. Bleaching of the fluorophore, which was observed during the assay, was corrected by subtracting blanks (100 μL substrate buffer, 5 μL DMSO, 20 μL McIlvaine buffer). Apparent rate constants k′ were obtained by fitting the resulting progress curves (FIG. 28A) to the one-phase association equitation y (y max y0)(1−exp^−kt)yo+in GraphPad Prism version 5.00 for Windows, GraphPad Software, San Diego Calif. USA, www.graphpad.com. Measurements were performed in nine fold and plotting of the obtained k′ values versus [^I0] yielded rectangular hyperbolar functions (FIG. 28B).
[formula] estimates of Ki app and ki were obtained. The Ki value in the absence of substrate was obtained by correcting the Ki app with […]

The target in series [2] is T1, GBA. The series can be described thus: GBA enzyme activity assay with 4-methylumbelliferyl β-D-glucopyranoside, inhibitor preincubated 30 min (apparent IC50). It is filed as biochemical.
For another series, the target named is GBA1 (Homo sapiens (Human), UniProt P04062). As to the kind of experiment: Kinetic constants of GBA1 inhibition (Table 2). It is filed as biochemical. The note with it: Table 2 kinetic constants.
Chain of GBA1 (P04062 40-536): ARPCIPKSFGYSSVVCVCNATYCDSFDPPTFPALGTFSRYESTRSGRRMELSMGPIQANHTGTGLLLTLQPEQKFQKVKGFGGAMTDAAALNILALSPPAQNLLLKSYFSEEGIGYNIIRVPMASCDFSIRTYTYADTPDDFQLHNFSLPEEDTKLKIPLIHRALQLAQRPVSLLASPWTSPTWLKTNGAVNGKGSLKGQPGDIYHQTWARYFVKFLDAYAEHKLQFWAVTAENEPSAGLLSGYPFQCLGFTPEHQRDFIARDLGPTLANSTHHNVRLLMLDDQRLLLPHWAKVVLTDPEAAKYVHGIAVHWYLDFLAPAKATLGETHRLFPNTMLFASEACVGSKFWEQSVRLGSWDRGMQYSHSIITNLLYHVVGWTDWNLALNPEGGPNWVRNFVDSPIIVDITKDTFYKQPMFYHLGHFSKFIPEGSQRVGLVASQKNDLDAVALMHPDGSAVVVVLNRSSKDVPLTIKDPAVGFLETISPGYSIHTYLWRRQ
The target in series [3] is T1, GBA. The series can be described thus: Competition assay for labeling of recombinant GBA with MDW933. It is filed as biochemical. Conditions: 2 mM, 30 min.
Series [4] concerns the target T2, GBA (Homo sapiens (Human), UniProt P04062). As to the kind of experiment: Time-lapse microscopy of GBA labeling in intact fibroblasts. The note with it: 5 nM. Format: cell-based. As to the method:
(§1) We next studied the labeling of GBA by MDW941 in intact fibroblasts using time-lapse microscopy. […] As a control, matched mice received the buffer solution intravenously. […] In addition to GBA, MDW933 clearly labeled other proteins that occur in the intestine in the mouse.
With the 37° C., 10% CO2 incubator enclosing the microscope, cells were imaged every 5 min for 2 hours simultaneously using fluorescence microscopy with an N2.1 filter block and phase-contrast brightfield microscopy (Leica IR-BE with Z-motor drive and a Plan APO 63×/1.40 oil immersion objective (Leica Microsystems, Rijswijk, The Netherlands), equipped with a KX85 camera, Apogee Instruments, Auburn, Calif., USA). […] An auto-focus routine was applied during acquisition. Images were analyzed using TimeLapseAVI 5.1.4 software (©Ron Hoebe, CMO, AMC, University of Amsterdam, The Netherlands; R.A.Hoebe@amc.uva.nl).

Another series deals with fibroblasts. The series can be described thus: Toxicity monitoring by live-cell imaging of fibroblasts. Format: cell-based, human. Conditions: after 100 h of exposure. The procedure: as §1
With the 37° C., 10% CO2 incubator enclosing the microscope, […] microscopy with an N2.1 filter block and phase-contrast brightfield microscopy (Leica IR-BE with Z-motor drive and a Plan APO 63×/1.40 oil immersion objective (Leica Microsystems, Rijswijk, The Netherlands), equipped with a KX85 camera, Apogee Instruments, Auburn, Calif., USA). […] An auto-focus routine was applied during acquisition. Images were analyzed using TimeLapseAVI 5.1.4 software (©Ron Hoebe, CMO, AMC, University of Amsterdam, The Netherlands; R.A.Hoebe@amc.uva.nl).

In series [5] the target is T2, GBA. As to the kind of experiment: Fluorescence microscopy of probe-labeled fibroblasts. Conditions: 5 nM, 2 h. Format: cell-based. The procedure:
We studied in situ labeling of GBA in cells using fluorescence-activated cell sorting (FACS) analysis. We first preincubated cells in the absence or presence of CBE and subsequently incubated the cells with a subsaturating or an excess amount of the green fluorescent probe 5. […] These positive results prompted us to analyze labeling of the cells with fluorescence microscopy (FIG. 25c-f). […] We also detected GBA protein by indirect immunofluorescence using the specific anti-GBA monoclonal antibody 8E4 (ref. 29). Using multispectral image analysis, we could specifically distinguish the respective fluorescent emission spectra (FIG. 25d-e) from autofluorescent background (FIG. 25c). […] As probes with a hydrophobic BODIPY moiety might nonspecifically be retained in membranes, in particular the plasma membrane, we studied this possibility more closely. […] These control probes did inhibit GBA in vitro with IC^50 values of 41 and 95 μM, respectively. However, inhibition is presumably reversible.
Fibroblasts were cultured on glass slides. […] Next, cells were washed, fixed with 3% (v/v) paraformaldehyde in PBS for 15 min, washed and incubated first with 0.05% (w/v) saponine for 15 min, next with 0.1 mM NH4Cl in PBS for 10 min and then with 3% (w/v) bovine serum albumin in PBS for 1 h. Next, the slides were incubated with anti-GBA monoclonal antibody 8E4 (1:500). […]

Another series concerns the target N370S GBA (Homo sapiens (Human), UniProt P04062, N370S). As to the kind of experiment: Chaperone experiment using isofagomine in N370S GBA fibroblasts. It is filed as cell-based. The note with it: 7 d, 0, 10, 30 and 300 nM.
In series [6] the target is T1, GBA. The series can be described thus: Reversibility of isofagomine competition for active site labeling. It is filed as biochemical. Conditions: pH 5.2, wash before labeling with MDW933 (10 nM for 15 min).
For the next series, the system named is lactase. As to the kind of experiment: Lactose competition of MDW933 labeling in intestinal homogenates. It is filed as biochemical, mouse. Conditions: lactose 250 mM. The source says: FIG. 32 Indenfication of the 160 kDa protein. […] (b) Quantification of the observed fluorescent signal. Data represent mean values±s.d.
Setting [7] is: rec. GBA1, 30 min, 37 C., pH 5.2 + Tch, Tr, read-out: Apparent IC50 (nM) rec. GBA1: 30 min, 37 C., pH 5.2 + Tch, Tr.
Setting [8] is: recombinant GBA, in vitro, read-out: apparent half-maximal inhibitory concentration (IC50).

The text below walks through data of patent US9056847B2, “Activity based probes (ABPs) interacting with glycosidases” (ACADEMISCH MEDISCH CENTRUM BIJ UNIVERSITEIT VAN AMSTERDAM, priority 2010, dated 2015).

Where two headings read alike, the source gives them in different places.

T1 sequence (P04062 40-536 R534H): as the sequence (P04062 40-536) above, with R495H counted along it
Chain of N370S GBA (P04062 40-536 N409S): as the sequence (P04062 40-536) above, with N370S counted along it
T2 sequence (P04062 40-536): as the sequence (P04062 40-536) above

With `Cc1cc(=O)oc2cc(O[C@@H]3O[C@H](CO)[C@@H](O)[C@H](O)[C@H]3O)ccc12` [4-methylumbelliferyl β-D-glucoside, reference compound], the Km on GBA [1] came out at 1200 µM.
As to `O[C@H]1[C@H](O)[C@@H](O)[C@@H]2O[C@@H]2[C@@H]1O` [CBE, Conduritol B-epoxide, reference compound], at GBA [2] (setting [7]), the IC50 came to 12000 nM. At GBA1, this compound came in with a Ki of 7730 nM and a ki of 0.0244 min⁻¹. In addition, at GBA [1], the Ki turned out to be 53000 ± 10800 nM, the “ki” value was 0.217 ± 0.026 min⁻¹ and the “ki/Ki” value came to 67 M⁻¹ s⁻¹. Moreover, on GBA [3], the “effect of preincubation on labeling with MDW933” value is “blocked labeling completely”.
In the case of `OC[C@@H]1[C@@H](O)[C@H](O)[C@@H](O)[C@@H]2O[C@H]12` [Cyclophellitol 3, cyclophellitol, reference compound], the IC50 at GBA [2] (setting [8]) turned out to be 150 ± 9 nM. In addition, at GBA [1], the affinity corresponds to a Ki of 152 ± 26 nM, the “ki” value stood at 0.078 ± 0.010 min⁻¹ and the “ki/Ki” value was found to be 8570 M⁻¹ s⁻¹.
As for `[N-]=[N+]=NC[C@@H]1[C@@H](O)[C@H](O)[C@@H](O)[C@@H]2O[C@H]12` [KY170, (2S,3R,4S,5S)-8-azido-8-deoxy-cyclophellitol], the IC50 on GBA [2] (setting [7]) worked out at 150 ± 30 nM; on GBA [2] (setting [8]), 120 ± 4 nM. Also, the Ki on GBA1 was found to be 83 nM; on GBA [1], 44 ± 7 nM. Moreover, the “ki” value on GBA [1] turned out to be 0.035 ± 0.003 min⁻¹. Also, the “ki/Ki” value at GBA [1] turned out to be 13200 M⁻¹ s⁻¹.
Regarding `COc1ccc(C2=[N+]3C(=C(CCCCc4cn(C[C@@H]5[C@@H](O)[C@H](O)[C@@H](O)[C@@H]6O[C@H]56)nn4)c4ccc(-c5ccc(OC)cc5)n4[B-]3(F)F)C=C2)cc1` [MDW941], on GBA [2] (FIG. 16, ABPs designed for GBA1, read-out: IC50), the IC50 was 2 nM. Moreover, the IC50 on GBA [2] (recombinant GBA, read-out: apparent half-maximal inhibitory concentration (IC50)) amounted to 1.94 ± 0.08 nM. At GBA1, this compound returned a Ki of 1.56 nM and a ki of 0.0236 min⁻¹. Besides, at GBA [1], the Ki came out at 8 ± 3 nM, the “ki” value came to 0.208 ± 0.063 min⁻¹ and the “ki/Ki” value was found to be 418300 M⁻¹ s⁻¹. Besides, the “time to maximum labeling” value on GBA [4] is listed as not above 15 min. In addition, the “signs of apoptosis or toxicity” value in the series on fibroblasts is on record as “did not show any signs of apoptosis or toxicity”.
For `CC1=CC(C)=[N+]2C1=C(CCCCc1cn(C[C@H]3C=C[C@H](O)[C@@H](O)[C@@H]3O)nn1)c1c(C)cc(C)n1[B-]2(F)F` [MDW1064], on GBA [2] (setting [8]), the IC50 was determined as 41000 nM.
Turning to `COc1ccc(C2=[N+]3C(=C(CCCCc4cn(C[C@H]5C=C[C@H](O)[C@@H](O)[C@@H]5O)nn4)c4ccc(-c5ccc(OC)cc5)n4[B-]3(F)F)C=C2)cc1` [MDW1065], on GBA [2] (setting [8]), the IC50 was 95000 nM. Also, the labeling of fibroblasts entry on GBA [5] is given as “hardly any detectable labeling”.
Turning to `OC[C@H]1CNC[C@@H](O)[C@@H]1O` [isofagomine], on N370S GBA, the “GBA enzyme activity in cell homogenates” value is on record as “modest isofagomine dose-dependent increase” and the “fluorescent MDW941-labeled GBA quantified on gel” value is on record as “modest dose-dependent increase”. Moreover, the “reversibility of competition for the active site” value on GBA [6] is listed as “fully reversible”.
On to `OC[C@H]1O[C@@H](O[C@H]2[C@H](O)[C@@H](O)C(O)O[C@@H]2CO)[C@H](O)[C@@H](O)[C@H]1O` (stereo partly shown) [lactose], for which the “reduction of labeling of the high-molecular weight protein in the intestinal fraction” value in the series on lactase is recorded as less than 90%.
